Test system: rat passive peritoneal anaphylaxis
Test: Rat passive peritoneal anaphylaxis (PPA)
Format: in vivo
Settings: for Concentration in peritoneal fluid as % of mean of controls (Mean ± SEM, 5-7 rats per group) Dye: Pontamine Sky Blue, OD at 625 nm; for Concentration in peritoneal fluid as % of mean of controls (Mean ± SEM, 5-7 rats per group) Histamine: fluid collected 5 min after challenge
Text: • a) inhibit rat passive peritoneal anaphylaxis; and • b) antagonise the spasmogenic effects of slow reacting substance of anaphylaxis, SRS-A, on isolated guinea pig ileum.
Charles River Sprague Dawley male rats of 250 - 300 g. and Dunkin Hartley male white guinea pigs of 250 - 300 g. were used. v
The method has been described previously. (Ross, Janet W., Smith, H. and Spicer, Barbara A. Increased vascular permeability during passive peritoneal anaphylaxis in the rat. Int. Arch. Allergy appl. Immun., 51, 226, 1976).
Rats were sensitised by giving an intraperitoneal injection of 0.5 ml of Bordetella pertussis vaccine (4 x 10^10 organisms/ml Burroughs Wellcome, London) and a subcutaneous injection of 0.5 ml of an emulsion of 100 mg of ovalbumin (chicken egg albumin, crystallised and lyophilised, grade 3, Sigma, London) in 2 ml of isotonic saline and 3 ml of Freund's incomplete adjuvant (Difco Laboratories, Michigan, USA) .
The rats were bled by cardiac puncture, on day 18, the blood was pooled, and the serum separated, stored at -20°C and thawed only once before use.
Rats were each given an intraperitoneal injection of 2 ml of a 1:5 dilution of the rat anti-serum in isotonic saline. Two hours later 0.3 ml of a 5% solution of Pontamine Sky Blue (Raymond A. Lamb, London) in isotonic saline was injected intravenously, followed by an intraperitoneal injection of the test compound in 1 ml of saline; (control rats received 1 ml of saline); followed 30 seconds later by an intraperitoneal injection of 5 ml of Tyrode's solution containing […]/ml heparin and 0.4 mg/ml of ovalbumin. The concentrations of the compounds were quoted as those in the 6 ml of fluid injected intraperitoneally. Exactly five minutes after challenge the rats were stunned and bled and their peritoneal fluids were collected by,opening their peritoneal cavities over funnels into polycarbonate tubes in ice. The supernatants were separated from the cellular residue by centrifuging at 150 g. for five minutes and were retained for assay of dye and histamine. Any samples obviously contaminated with blood were not used for estimation of dye. Groups of at least five rats were used for each dose of compound and the treatments were randomised.
Dye was assayed within two hours by measurement of optical density (OD) at 625 nm.
For histamine assay 0.5 ml samples of the supernatants were added to 1 ml volumes of 12% trichloracetic acid and stored at -20°C. The deproteinised samples were assayed using an automated spectrofluorimetric system (Technicon Autoanalyser) by a method similar to that of Evans, D.P., Lewis, J.A. and Thomson, D.S.: (An automated fluorimetric assay for the rapid determination of histamine in biological fluids. Life Sci., 12, 327, 1973).

[1] = conc. injected i.p. 2 x 10^-5 M
[2] = conc. injected i.p. 2 x 10^-6 M
[3] = conc. injected i.p. 2 x 10^-7 M
[4] = conc. injected i.p. 2 x 10^-8 M

| SMILES | Concentration in peritoneal fluid as % of mean of controls (Mean ± SEM, 5-7 rats per group) Dye [1] | Concentration in peritoneal fluid as % of mean of controls (Mean ± SEM, 5-7 rats per group) Histamine [1] | Concentration in peritoneal fluid as % of mean of controls (Mean ± SEM, 5-7 rats per group) Dye [2] | Concentration in peritoneal fluid as % of mean of controls (Mean ± SEM, 5-7 rats per group) Histamine [2] | Concentration in peritoneal fluid as % of mean of controls (Mean ± SEM, 5-7 rats per group) Dye [3] | Concentration in peritoneal fluid as % of mean of controls (Mean ± SEM, 5-7 rats per group) Histamine [3] | Concentration in peritoneal fluid as % of mean of controls (Mean ± SEM, 5-7 rats per group) Dye [4] | Concentration in peritoneal fluid as % of mean of controls (Mean ± SEM, 5-7 rats per group) Histamine [4] |
| --- | --- | --- | --- | --- | --- | --- | --- | --- |
| CCCc1c(OCCCOc2ccc3c(c2)C(=O)c2nn[nH]c2C3=O)ccc(C(C)=O)c1O [Example 1 and 2, 6-[3-(4-Acetyl-3-hydroxy-2-n-propylphenoxy)propoxy]-4,9-dihydro-4,9-dioxo-1H-naphtho[2,3-d]-v-triazole] | 32 ± 5% | 10 ± 1% | 58 ± 8% | 27 ± 8% | 63 ± 5% | 57 ± 11% | – | – |
| CCCc1c(OCCCOc2cccc3c2C(=O)c2nn[nH]c2C3=O)ccc(C(C)=O)c1O [Example 3, 5-[3-(4-Acetyl-3-hydroxy-2-n-propylphenoxy)-pro^poxy]-4,9-dihydro-4,9-dioxo-1H-naphtho[2,3-d]-v-triazole] | 57 ± 4% | 25 ± 3% | 94 ± 8% | 62 ± 11% | – | – | – | – |
| CCCc1c(OCC(O)COc2ccc3c(c2)C(=O)c2nn[nH]c2C3=O)ccc(C(C)=O)c1O (centres unmarked) [Example 4, 6-[3-(4-Acetyl-3-hydroxy-2-n-propylphenoxy)-2-hydroxy-pronoxy]-4,9-dihydro-4,9-dioxo-1H-naphtho[2,3-d]-v-triazole] | – | – | – | – | 58 ± 4% | 38 ± 4% | 72 ± 11% | 64 ± 11% |

Source: patent EP0112419A1, “Pharmacologically active naphthotriazole derivatives” (BEECHAM GROUP PLC, priority 1982, dated 1984)
